{"source": "patent US20180333382A1", "about": "“PHARMACEUTICAL COMPOSITIONS COMPRISING DGLA AND USE OF SAME” (DS Biopharma Limited, priority 2017, published 2018)", "key": {"[1]": {"details": "in vivo", "procedure": "In Part one of the study, plasma PK analysis of Dihomo-Gamma-Linolenic Acid (DGLA) and 15-Hydroxyeicosatrienoic acid (15-HETrE), in fasted subjects alone, was performed for Cohorts one to four up to 312 hours post dose on study Days 1 to 5, 8, 14, and the follow-up visit.\nAnalysis of plasma concentrations of DGLA (free and total) and free 15-HETrE were performed in blood samples obtained from the subjects.\nAnalysis of all plasma and skin blister fluid samples was performed using validated methods. Concentrations of free and total DGLA were measured in plasma and skin blister fluid by liquid chromatography with tandem mass spectrometry (LC/MS/MS); the quantitation range was 100 to 10,000 ng/mL for free DGLA and 5000 to 500,000 ng/mL for total DGLA. Plasma concentrations of free 15-HETrE were measured by LC/MS/MS with a quantitation range of 100 to 10,000 ng/mL."}, "[2]": {"tested_on": "spontaneous hypertensive rats", "experiment": "Arterial pressure and phenylephrine-induced hypertensive response after seven days of gavage (DGLA, aspirin, DGLA + aspirin)", "type": "in vivo, rat", "description": "An in vivo investigation of anti-hypertension efficacy following co-administration of DGLA and aspirin in spontaneous hypertensive rats was conducted. This experiment investigated the efficacy of DGLA when co-administered chronically with aspirin to reduce the hypertensive response induced acutely by phenylephrine in spontaneous hypertensive rats. Spontaneously hypertensive adult male rats (250-300 g), bred by Charles River Laboratories, were used for this assay. The animals were identified upon arrival as per CCPA guidelines. The animals were pair-housed by group (low dose+aspirin, high dose+aspirin or aspirin alone) for the duration of the oral gavage prior to surgery. All animal care and vivarium maintenance was recorded, with documents kept at the test facility.\nThe concentrations of DGLA to be tested (50 and 500 mg/kg) as well as the concentration of aspirin (10 mg/kg) were selected by the Sponsor based on information available at the time of design of this study. They were selected to cover a range of concentrations useful for the identification of the mechanism of action of the test article.\nAll solution preparations were documented on a Solution Contents Form, defining labelling information and all relevant information on reagents: batch number, storage conditions, contents, and preparation/expiry dates.\nThe test article was formulated using olive oil as the vehicle. This stock solution was then administered by oral gavage once per day for seven consecutive days. A low and a high dose (50 mg/kg and 500 mg/kg) were tested.\nA 5 mg/ml stock solution of aspirin was prepared by dissolving the appropriate amount of aspirin in 100% DMSO which was then diluted in water. The concentration of DMSO was less than 1%. The appropriate volume was administered by oral gavage to each animal once per day for seven consecutive days. The stock solution was stored at room temperature and was considered stable for the duration of the gavage.\nThe appropriate volume was administered to each animal by an intravenous injection at the end of the experiment on the surgery day. The stock solution was stored at 4° C. and was considered stable for the duration of the experiment.\nA stock solution of phenylephrine of 1 mg/ml were prepared in PBS (pH=7.4±0.05). The stock solution was stored at 4° C. The expiration date was set at 14 days after preparation.\nMale spontaneous hypertensive rats weighing approximately 300 g arrived at the facility at least two days before beginning the oral gavage. Animals were assigned to one of three groups (low dose+aspirin, high dose+aspirin, and aspirin), and were pair-housed during the acclimation period. Each group (n=4) received the appropriate compound by oral gavage using a 16 G feeding needle. The stock solution was administered once per day for seven consecutive days. On the seventh day of administration, the animals underwent surgery and hypertensive monitoring.\nRats were anesthetized with a 2.5-3.0% isoflurane-O2 mixture in an induction box. When the animals were removed from the induction box, they were connected onto a nose cone to maintain anesthesia during the tracheotomy. The animals were tracheotomised with an endotracheal tube (7 cm length from connector to the tip made with a PE205 tube from BD and a 16 G needle) to facilitate spontaneous breathing, stabilize hemodynamics, and to keep the rat under anesthesia with an isoflurane-O2 mixture. Two catheters were inserted: one in the right femoral artery for systemic arterial pressure (SAP) measurement, and one in the right femoral vein for delivery of the hypertensor and positive control. ECG signals were acquired with ECG contacts placed in a Lead-1 configuration on the anaesthetized animal, and a pulse oxymeter was attached to the animal's hind paw to enable continuous monitoring of the general condition of the rat during the surgical procedure."}, "[3]": {"details": "Aspirin 10 mg/kg, seven days of gavage, before phenylephrine"}, "[4]": {"details": "aspirin only (10 mg/kg), seven consecutive days of gavage"}, "[5]": {"details": "aspirin only (10 mg/kg), seven consecutive days of gavage, Rat #1-#5"}}, "note": "“And” between values parts separate entries of the source, which are not always exact repeats. Equal values may be shown once. Marks after values point to notes of the source that are not given here."}
{"smiles": "CCCCC[C@H](O)/C=C/C=C\\C/C=C\\CCCCCCC(=O)O", "note": "[15-HETrE, 15-Hydroxyeicosatrienoic acid]", "values": [{"measurement": "plasma free 15-HETrE concentrations after DS107G", "setting": "[1]", "value": "< 100", "unit": "ng/mL"}]}
{"smiles": "CC(=O)Oc1ccccc1C(=O)O", "note": "[Aspirin, aspirin]", "values": [{"measurement": "Arterial pressure, Diastol", "setting": "[2]; [3]", "value": 100, "unit": "mmHg"}, {"measurement": "Arterial pressure, Systol", "setting": "[2]; [3]", "value": 190, "unit": "mmHg"}, {"measurement": "Mean systemic arterial pressure", "setting": "[2]; [3]", "value": 130, "unit": "mmHg"}, {"measurement": "Mean arterial pressure at baseline, Average SAP", "setting": "[2]; [4]", "value": "136.8 mm of Hg"}, {"measurement": "Mean arterial pressure with an intravenous dose of Phenylephrine 20 μg/kg, Average SAP", "setting": "[2]; [4]", "value": "174.3 mm of Hg"}, {"measurement": "Mean arterial pressure at baseline, individual rats", "setting": "[2]; [5]", "value": "86.75 mm of Hg and 107.64 mm of Hg and 160.50 mm of Hg and 141.36 mm of Hg and 187.84 mm of Hg"}, {"measurement": "Mean arterial pressure with an intravenous dose of Phenylephrine 20 μg/kg, individual rats", "setting": "[2]; [5]", "value": "149.35 mm of Hg and 120.84 mm of Hg and 202.61 mm of Hg and 194.76 mm of Hg and 203.90 mm of Hg"}, {"measurement": "Mean Arterial Pressure, individual rats", "setting": "[2]; gavage Aspirin 10 mg/kg 7 days, Baseline", "value": "86.75 mmHg and 107.64 mmHg and 160.50 mmHg and 141.36 mmHg and 187.84 mmHg"}, {"measurement": "Mean Arterial Pressure, Average", "setting": "[2]; gavage Aspirin 10 mg/kg 7 days, Baseline, n=5", "value": 136.8, "unit": "mmHg"}, {"measurement": "Mean Arterial Pressure, individual rats", "setting": "[2]; gavage Aspirin 10 mg/kg 7 days, PHE 3 μg/kg iv", "value": "97.24 mmHg and 122.18 mmHg and 168.06 mmHg and 150.54 mmHg and 192.06 mmHg"}, {"measurement": "Mean Arterial Pressure, Average", "setting": "[2]; gavage Aspirin 10 mg/kg 7 days, PHE 3 μg/kg iv, n=5", "value": "146.0* mmHg"}, {"measurement": "Mean Arterial Pressure, individual rats", "setting": "[2]; gavage Aspirin 10 mg/kg 7 days, PHE 10 μg/kg iv", "value": "137.63 mmHg and 122.18 mmHg and 203.75 mmHg and 169.61 mmHg and 201.69 mmHg"}, {"measurement": "Mean Arterial Pressure, individual rats", "setting": "[2]; gavage Aspirin 10 mg/kg 7 days, PHE 10 μg/kg iv after Carvedilol", "value": "93.22 mmHg and 52.61 mmHg and 185.63 mmHg and 171.45 mmHg and 187.96 mmHg"}, {"measurement": "Mean Arterial Pressure, Average", "setting": "[2]; gavage Aspirin 10 mg/kg 7 days, PHE 10 μg/kg iv after Carvedilol, n=5", "value": "138.2 § mmHg"}, {"measurement": "Mean Arterial Pressure, Average", "setting": "[2]; gavage Aspirin 10 mg/kg 7 days, PHE 10 μg/kg iv, n=5", "value": "167.0* mmHg"}, {"measurement": "Mean Arterial Pressure, individual rats", "setting": "[2]; gavage Aspirin 10 mg/kg 7 days, PHE 20 μg/kg iv", "value": "149.35 mmHg and 120.84 mmHg and 202.61 mmHg and 194.76 mmHg and 203.90 mmHg"}, {"measurement": "Mean Arterial Pressure, Average", "setting": "[2]; gavage Aspirin 10 mg/kg 7 days, PHE 20 μg/kg iv, n=5", "value": "174.3* mmHg"}, {"measurement": "Mean Arterial Pressure, individual rats", "setting": "[2]; gavage Aspirin 10 mg/kg 7 days, second Baseline after PHE 20 μg/kg", "value": "98.38 mmHg and 64.32 mmHg and 164.88 mmHg and 159.32 mmHg and 177.61 mmHg"}, {"measurement": "Mean Arterial Pressure, Average", "setting": "[2]; gavage Aspirin 10 mg/kg 7 days, second Baseline after PHE 20 μg/kg, n=5", "value": "132.9** mmHg"}]}
{"smiles": "COc1ccccc1OCCNCC(O)COc1cccc2[nH]c3ccccc3c12", "note": "(stereo not shown) [Carvedilol, carvedilol]", "values": [{"measurement": "effect on blood pressure", "setting": "[2]; 0.1 mg/kg iv, DGLA+aspirin-fed animals", "value": "significant decrease in blood pressure"}, {"measurement": "effect on mean systemic arterial pressure when added after phenylephrine", "setting": "[2]; 0.1 mg/kg iv, aspirin-fed rats", "value": "significant decrease"}, {"measurement": "Mean Arterial Pressure, individual rats", "setting": "[2]; gavage Aspirin 10 mg/kg 7 days, Carvedilol 0.1 mg/kg iv", "value": "57.12 mmHg and 44.38 mmHg and 145.56 mmHg and 134.82 mmHg and 115.06 mmHg"}, {"measurement": "Mean Arterial Pressure, individual rats", "setting": "[2]; gavage DGLA 50 mg/kg + Aspirin 10 mg/kg 7 days, Carvedilol 0.1 mg/kg iv", "value": "115.29 mmHg and 97.01 mmHg and 126.33 mmHg and 59.10 mmHg and 58.93 mmHg"}, {"measurement": "Mean Arterial Pressure, Average SAP", "setting": "[2]; gavage DGLA 50 mg/kg + Aspirin 10 mg/kg 7 days, Carvedilol 0.1 mg/kg iv, n=5", "value": "91.3 † mmHg"}, {"measurement": "Mean Arterial Pressure, individual rats", "setting": "[2]; gavage DGLA 500 mg/kg + Aspirin 10 mg/kg 7 days, Carvedilol 0.1 mg/kg iv", "value": "62.13 mmHg and 57.56 mmHg and 57.32 mmHg and 52.11 mmHg"}, {"measurement": "Mean Arterial Pressure, Average SAP", "setting": "[2]; gavage DGLA 500 mg/kg + Aspirin 10 mg/kg 7 days, Carvedilol 0.1 mg/kg iv, n=4", "value": "57.3 † mmHg"}]}
{"smiles": "CNC[C@H](O)c1cccc(O)c1", "note": "[phenylephrine]", "values": [{"measurement": "hypertensor effect on mean systemic arterial pressure", "setting": "[2]; 3, 10, 20 μg/kg iv, rats fed with aspirin", "value": "increased mean systemic arterial pressure with increasing doses"}]}
